According to publication PMC9516332 (Frontiers in Oncology, 2022):

How the values were obtained:
Assay in all cases: Kinase panel profiling at 1 µmol/L (MSA or IMAP), percentage inhibition
Type in all cases: biochemical
[1] = molecular target: panel of 255 wild-type kinases (Homo sapiens, UniProt O75116); settings: kinase ROCK2; 1 µmol/L single concentration; read-out: %-inhibition at 1 µmol/L, ROCK2
[2] = molecular target: panel of 255 wild-type kinases (Homo sapiens, UniProt O96017); settings: CHK2 kinase assay; 1 µmol/L single concentration; read-out: %-inhibition CHK2
[3] = molecular target: panel of 255 wild-type kinases (Homo sapiens, UniProt P05129); settings: kinase PKCγ; 1 µmol/L single concentration; read-out: %-inhibition at 1 µmol/L, PKCγ
[4] = molecular target: panel of 255 wild-type kinases (Homo sapiens, UniProt P07948); settings: kinase LYNa; 1 µmol/L single concentration; read-out: %-inhibition at 1 µmol/L, LYNa
[5] = molecular target: panel of 255 wild-type kinases (Homo sapiens, UniProt P11309); settings: kinase PIM1; 1 µmol/L single concentration; read-out: %-inhibition at 1 µmol/L, PIM1
[6] = molecular target: panel of 255 wild-type kinases (Homo sapiens, UniProt P12931); settings: kinase SRC; 1 µmol/L single concentration; read-out: %-inhibition at 1 µmol/L, SRC
[7] = molecular target: panel of 255 wild-type kinases (Homo sapiens, UniProt P23458); settings: kinase JAK1; 1 µmol/L single concentration; read-out: %-inhibition at 1 µmol/L, JAK1
[8] = molecular target: panel of 255 wild-type kinases (Homo sapiens, UniProt P27448); settings: MARK3; 1 µmol/L single concentration; read-out: %-inhibition, MARK3
[9] = molecular target: T1, panel of 255 wild-type kinases (Homo sapiens, UniProt P29320); settings: kinase EPHA3; 1 µmol/L single concentration; read-out: %-inhibition at 1 µmol/L, EPHA3
T1 sequence (P29320 21-983): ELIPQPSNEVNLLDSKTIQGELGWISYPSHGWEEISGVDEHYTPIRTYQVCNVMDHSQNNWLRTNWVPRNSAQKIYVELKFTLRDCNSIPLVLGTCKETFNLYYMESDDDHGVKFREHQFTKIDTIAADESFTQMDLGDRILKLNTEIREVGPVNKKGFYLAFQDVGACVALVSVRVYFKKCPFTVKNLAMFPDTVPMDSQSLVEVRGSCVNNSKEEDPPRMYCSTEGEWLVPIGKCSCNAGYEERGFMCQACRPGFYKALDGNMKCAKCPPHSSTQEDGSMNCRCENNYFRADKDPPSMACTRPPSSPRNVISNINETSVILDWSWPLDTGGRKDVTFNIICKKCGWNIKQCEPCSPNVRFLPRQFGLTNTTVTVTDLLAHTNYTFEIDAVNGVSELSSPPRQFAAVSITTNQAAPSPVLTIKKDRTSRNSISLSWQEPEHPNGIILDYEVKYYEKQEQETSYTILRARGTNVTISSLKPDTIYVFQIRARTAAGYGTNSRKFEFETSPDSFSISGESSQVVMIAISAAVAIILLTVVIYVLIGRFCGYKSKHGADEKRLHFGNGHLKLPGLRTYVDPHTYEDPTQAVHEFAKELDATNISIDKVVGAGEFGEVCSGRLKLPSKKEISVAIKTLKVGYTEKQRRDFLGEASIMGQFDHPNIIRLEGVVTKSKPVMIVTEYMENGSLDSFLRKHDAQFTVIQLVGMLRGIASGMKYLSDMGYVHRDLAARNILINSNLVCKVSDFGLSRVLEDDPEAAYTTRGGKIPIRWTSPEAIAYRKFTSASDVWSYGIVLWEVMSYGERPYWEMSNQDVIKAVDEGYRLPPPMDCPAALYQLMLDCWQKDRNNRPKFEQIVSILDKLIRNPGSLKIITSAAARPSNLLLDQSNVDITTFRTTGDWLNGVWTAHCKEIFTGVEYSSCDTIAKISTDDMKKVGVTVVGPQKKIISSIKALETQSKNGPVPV

[10] = molecular target: panel of 255 wild-type kinases (Homo sapiens, UniProt Q15119); settings: kinase PDHK2; 1 µmol/L single concentration; read-out: %-inhibition at 1 µmol/L, PDHK2
[11] = molecular target: T2, panel of 255 wild-type kinases (Homo sapiens, UniProt Q8TF76); settings: kinase Haspin; 1 µmol/L single concentration; read-out: %-inhibition at 1 µmol/L, Haspin
T2 sequence (Q8TF76 1-798): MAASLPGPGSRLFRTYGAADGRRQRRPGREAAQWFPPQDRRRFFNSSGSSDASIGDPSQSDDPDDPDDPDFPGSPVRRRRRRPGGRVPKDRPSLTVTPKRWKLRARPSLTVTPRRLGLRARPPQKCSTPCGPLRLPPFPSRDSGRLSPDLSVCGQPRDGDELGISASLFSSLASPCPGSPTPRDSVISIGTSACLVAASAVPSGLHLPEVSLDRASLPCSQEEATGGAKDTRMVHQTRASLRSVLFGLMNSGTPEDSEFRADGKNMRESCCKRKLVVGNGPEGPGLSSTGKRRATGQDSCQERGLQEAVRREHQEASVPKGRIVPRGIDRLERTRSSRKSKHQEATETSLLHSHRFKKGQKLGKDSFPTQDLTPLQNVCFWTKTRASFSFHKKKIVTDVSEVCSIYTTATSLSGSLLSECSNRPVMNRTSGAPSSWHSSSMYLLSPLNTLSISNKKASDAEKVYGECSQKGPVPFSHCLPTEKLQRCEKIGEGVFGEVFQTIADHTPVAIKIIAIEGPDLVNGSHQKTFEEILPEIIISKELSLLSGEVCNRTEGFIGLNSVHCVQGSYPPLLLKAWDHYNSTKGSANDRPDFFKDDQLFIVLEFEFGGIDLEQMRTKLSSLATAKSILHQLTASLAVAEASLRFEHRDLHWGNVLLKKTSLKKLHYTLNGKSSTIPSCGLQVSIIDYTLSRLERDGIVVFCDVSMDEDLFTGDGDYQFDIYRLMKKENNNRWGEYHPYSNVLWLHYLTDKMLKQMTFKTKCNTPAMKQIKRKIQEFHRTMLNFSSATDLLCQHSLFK

[12] = molecular target: panel of 255 wild-type kinases (Homo sapiens, UniProt Q9HCP0); settings: kinase CK1γ1; 1 µmol/L single concentration; read-out: %-inhibition at 1 µmol/L, CK1γ1
[13] = molecular target: panel of 255 wild-type kinases (Homo sapiens, UniProt Q9UM73); settings: ALK kinase assay; 1 µmol/L single concentration; read-out: %-inhibition ALK

SMILES | inhibition at 1 µM [1] [%] | inhibition at 1 µM [2] [%] | inhibition at 1 µM [3] [%] | inhibition at 1 µM [4] [%] | inhibition at 1 µM [5] [%] | inhibition at 1 µM [6] [%] | inhibition at 1 µM [7] [%] | inhibition at 1 µM [8] [%] | inhibition at 1 µM [9] [%] | inhibition at 1 µM [10] [%] | inhibition at 1 µM [11] [%] | inhibition at 1 µM [12] [%] | inhibition at 1 µM [13] [%]
CN1CCN(c2ccc(C(=O)Nc3n[nH]c4ccc(Cc5cc(F)cc(F)c5)cc34)c(NC3CCOCC3)c2)CC1 [entrectinib] | 7 | 31 | 1 | 74 | -6 | 95 | 91 | 15 | 30 | 4.24 | -2.24 | -1.18 | 100
CCc1nc(C(N)=O)c(Nc2ccc(N3CCC(N4CCN(C)CC4)CC3)c(OC)c2)nc1NC1CCOCC1 [gilteritinib] | 66 | 75 | 19 | 88 | 6 | 89 | 24 | 52 | 30 | 5 | 35 | 11 | 101
CCN1CCN(c2ccc(Nc3cc(N(C)C(=O)Nc4c(Cl)c(OC)cc(OC)c4Cl)ncn3)cc2)CC1 [infigratinib] | -0.775 | -0.482 | 0.114 | 84 | -2.33 | 37 | 2.57 | -7.59 | -0.311 | -3.38 | -1.4 | -0.947 | 43
O=C(Nc1cnn2ccc(N3CCC[C@@H]3c3cc(F)ccc3F)nc12)N1CC[C@H](O)C1 [larotrectinib] | -3.33 | 3.46 | -1.62 | 5 | -5.32 | -4.39 | 0.894 | 4 | 0.702 | 5 | -4.46 | -4.74 | 7
CCN1C(=O)N(c2c(F)c(OC)cc(OC)c2F)Cc2cnc3[nH]c(CN4CCOCC4)cc3c21 [pemigatinib] | -5 | 3 | -0.948 | 66 | -7 | 2.67 | -2.65 | 56 | 0.534 | 3.53 | -3.7 | -5.5 | -1.12
FC(F)(F)c1ccc(CNc2ccc(Cc3c[nH]c4ncc(Cl)cc34)cn2)cn1 [pexidartinib] | 0.233 | 11 | 4.68 | 24 | -3.77 | 0.371 | 7 | 12 | 2.11 | 4 | 6.52 | 10 | 11
CO[C@]1(C(=O)N[C@@H](C)c2ccc(-n3cc(F)cn3)nc2)CC[C@H](c2nc(C)cc(Nc3cc(C)[nH]n3)n2)CC1 [pralsetinib] | 1.29 | 10 | 1.41 | 92 | -1.53 | 94 | 101 | -8 | 32 | 1.11 | 0.149 | 1.83 | 35
CCn1c(=O)c(-c2cc(NC(=O)Nc3ccccc3)c(F)cc2Br)cc2cnc(NC)cc21 [ripretinib] | -1.2 | 6 | 0.0973 | 85 | -5 | 71 | 26 | 1.78 | 88 | 0.884 | 1.87 | -0.282 | 2.68
COc1ccc(CN2C3CC2CN(c2ccc(-c4cc(OCC(C)(C)O)cn5ncc(C#N)c45)cn2)C3)cn1 [selpercatinib] | -0.275 | 80 | -0.427 | 60 | -5.68 | 48 | 6 | 45 | 49 | -0.608 | -4.63 | 12 | 4
Cc1cc(Nc2ncnc3ccc(NC4=NC(C)(C)CO4)cc23)ccc1Oc1ccn2ncnc2c1 [tucatinib] | -1.34 | 4 | -1.73 | 7 | -3.59 | -2 | 2.72 | -10 | -10 | -2 | 0.893 | 11 | 32
